# Measured values reported in patent publication US7244762B2, “Antitumoral d-homoestra-1,3,5 (10)-trien-3-yl 2-substituted sulfamates” (Sterix Limited, priority 2003, dated 2007).
# pIC50: −log10 of the molar value.
# Columns and labels:
# [1] = system: HMVEC human primary dermal microvascular endothelial cells; assay: Inhibition of cell proliferation, crystal violet staining; type: cell-based; details: 4 days incubation
# Description: (§1) Cell cultures of the following cell lines were prepared in 96-well microtiter plates: • 1. MaTu/ADR multidrug-resistant human breast tumor cells (Epo GmbH Berlin), 5000 cells/well. • 2. HCT116 human colon tumor cells (ATCC CCL-247), 3000 cells/well. • 3. NCl-H460 human non-small-cell lung cancer cells (ATCC HTB-177), 3000 cells/well. • 4. DU145 human prostate tumor cells (ATCC HTB-81), 5000 cells/well. • 5. HMVEC human primary dermal microvascular endothelial cells, 7500 cells/well.
# (§2) After 24 hours of incubation in a cell culture incubator at 37° C., the cells of a microtiter plate were stained with crystal violet (reference plate), while the cells in the test plates were incubated for 4 days with the test substances in the concentrations […], as well as with the DMSO solvent by itself (solvent control). The cell proliferation was determined by staining cells with crystal violet. The extinction of the crystal violet was determined by photometry at 595 nm. The percentage of the change in the cell number in the test plates was determined after the extinction values were normalized to the reference plate (0%) and to the solvent control (100%). The semi-maximal inhibition of the cell growth (IC50) was determined as the substance concentration, in which 50% of the cell number of the solvent controls were present.
# [2] = system: HCT116 human colon tumor cells; assay: as above; type: cell-based; details: HCT116, 4 days incubation
# Description: as §1, §2
# [3] = system: DU145 human prostate tumor cells; assay: as above; type: cell-based; details: DU145, 4 days incubation
# Description: as §1, §2
# [4] = system: MaTu/ADR multidrug-resistant human breast tumor cells; assay: as above; type: cell-based; details: 4 days incubation
# Description: as §1, §2
# [5] = system: NCl-H460 human non-small-cell lung cancer cells; assay: as above; type: cell-based; details: NCl-H460, 4 days incubation
# Description: as §1, §2
# [6] = target: T1, tubulin (microtubular protein purified from pig brains) (Sus scrofa, UniProt P02550+P02554); assay: Inhibition of tubulin polymerization (turbidimetry at 340 nm); type: biochemical; details: pig brain microtubular protein 1 mg/ml, 0.25 mmol GTP, 37° C.
# T1 construct: microtubular protein was purified from pig brains via cydic assembling/disassembling; from tissue; host or cells: pig brain
# Description: The in-vitro testing of the tubulin polymerization influence was performed as follows:
# According to Shelanski et al. (Shelanski et al. Proc. Natl. Acad. Sci. USA 1973, 70, 765-8), microtubular protein was purified from pig brains via cydic assembling/disassembling. The buffer system used had the following composition: 20 mmol of PIPES (1,4-piperazine-diethane-sulfonic acid, pKa 6.8), 80 mmol of NaCl, 0.5 mmol of MgCl2, 1 mmol of EGTA [ethylene glycol-bis-(2-aminoethylene)-tetraacetic acid].
# For active ingredient testing, protein concentrations of 1 mg/ml (about 10^−5 mmol of tubulin) were used. The determination of protein was carried out according to the Lowry Method (Lowry et al. J. Biol. Chem. 1951, 193, 265-75) with bovine serum albumin as a standard. The assembling of microtubuli was carried out in the presence of 0.25 mmol of GTP and heating the samples to 37° C.
# The microtubulus formation was examined by means of turbidimetry at a wavelength of 340 nm.
# Testing of the active ingredients was carried out by their addition at the beginning of the assembling or in the state of equilibrium. […] To monitor action and to evaluate the measured turbidity values, a transmission electron microscopic study (CEM 902 A, Zeiss/Oberkochen) of the assemblates was always performed after negative staining with 1% aqueous uranyl acetate.
# T1 sequence (P02550 whole entry): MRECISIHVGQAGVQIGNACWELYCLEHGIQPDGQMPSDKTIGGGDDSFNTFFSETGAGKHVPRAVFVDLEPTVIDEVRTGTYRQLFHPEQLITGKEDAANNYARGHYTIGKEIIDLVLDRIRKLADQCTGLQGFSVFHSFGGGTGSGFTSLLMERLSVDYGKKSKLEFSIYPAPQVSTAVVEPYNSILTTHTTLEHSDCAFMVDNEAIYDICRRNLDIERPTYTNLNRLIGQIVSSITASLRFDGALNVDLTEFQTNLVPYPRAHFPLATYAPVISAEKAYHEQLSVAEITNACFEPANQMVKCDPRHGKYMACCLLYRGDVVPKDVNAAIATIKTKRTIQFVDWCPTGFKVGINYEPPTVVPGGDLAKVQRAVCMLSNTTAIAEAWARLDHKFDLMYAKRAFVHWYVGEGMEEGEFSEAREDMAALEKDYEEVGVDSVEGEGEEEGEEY
# T1 sequence (P02554 whole entry): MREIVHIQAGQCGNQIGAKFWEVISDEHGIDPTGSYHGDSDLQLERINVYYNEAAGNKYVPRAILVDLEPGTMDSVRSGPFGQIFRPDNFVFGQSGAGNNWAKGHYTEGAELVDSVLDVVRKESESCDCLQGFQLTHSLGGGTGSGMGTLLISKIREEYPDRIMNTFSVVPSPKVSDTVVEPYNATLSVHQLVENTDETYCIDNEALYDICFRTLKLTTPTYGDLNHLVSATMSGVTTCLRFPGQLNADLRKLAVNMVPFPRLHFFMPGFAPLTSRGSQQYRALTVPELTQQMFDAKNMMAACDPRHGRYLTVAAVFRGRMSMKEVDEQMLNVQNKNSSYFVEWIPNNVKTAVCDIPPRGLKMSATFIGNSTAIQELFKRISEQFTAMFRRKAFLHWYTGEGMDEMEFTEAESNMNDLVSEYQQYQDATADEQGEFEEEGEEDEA
Structure (SMILES),pIC50 [2],pIC50 [3],pIC50 [4],pIC50 [5],pIC50 [6],"pIC50 ([2]; Homo sapiens, HCT-116, 96 h)","pIC50 ([3]; Homo sapiens, DU-145, 96 h)","pIC50 ([4]; Homo sapiens, 96 h)","pIC50 ([5]; Homo sapiens, 96 h)",pIC50 [1],"pIC50 ([1]; Homo sapiens, 96 h)"
"COc1cc2c(cc1OS(N)(=O)=O)CC[C@@H]1[C@@H]2CC[C@]2(C)C(=O)CCC[C@@H]12 [(1), 2-Methoxy-17a-oxo-17a-homoestra-1,3,5(10)-trien-3-yl Sulfamate]",6.74,6.30,> 7.00,6.74,–,–,–,–,–,6.66,–
"COc1cc2c(cc1O)CC[C@@H]1[C@@H]2CC[C@]2(C)[C@@H](O)CC[C@@H]12 [2-Methoxyestradiol, reference compound]",5.96,5.72,6.70,5.74,5.57,–,–,–,–,5.66,–
"COc1cc2c(cc1OS(N)(=O)=O)CC[C@@H]1[C@@H]2CC[C@]2(C)CCCC[C@@H]12 [(2), 2-Methoxy-17a-homoestra-1,3,5(10)-trien-3-yl Sulfamate]",–,–,–,–,6.02,6.22,6.22,6.70,6.22,–,6.30

# Now from value to compound, other results behind:
pIC50 [2],pIC50 [3],pIC50 [4],pIC50 [5],pIC50 [6],"pIC50 ([2]; Homo sapiens, HCT-116, 96 h)","pIC50 ([3]; Homo sapiens, DU-145, 96 h)","pIC50 ([4]; Homo sapiens, 96 h)","pIC50 ([5]; Homo sapiens, 96 h)",Structure (SMILES),pIC50 [1],"pIC50 ([1]; Homo sapiens, 96 h)"
5.74,5.55,6.10,5.74,–,–,–,–,–,"COc1cc2c(cc1OS(N)(=O)=O)CC[C@@H]1[C@@H]2CC[C@]2(C)[C@@H](OS(N)(=O)=O)CCC[C@@H]12 [(4), 2-Methoxy-17a-homoestra-1,3,5(10)-triene-3,17aβ-diyl Bissulfamate]",6.22,–
–,–,–,–,–,8.40,8.40,6.40,8.40,"CC(=O)O[C@H]1C(=O)[C@@]2(C)[C@H]([C@H](OC(=O)c3ccccc3)[C@]3(O)C[C@H](OC(=O)[C@H](O)[C@@H](NC(=O)c4ccccc4)c4ccccc4)C(C)=C1C3(C)C)[C@]1(OC(C)=O)CO[C@@H]1C[C@@H]2O [Taxol, reference compound]",–,8.40
